Biological target: histamine H4 receptor (Homo sapiens, UniProt Q9H3N8)
Experiment: In vitro histamine H4 potency in FLIPR (Ca2+ flux, HEK-293 cells coexpressing Gαqi5)
Assay type: cell-based
Design: expressed in transfected cells
Details: Kb for antagonists and inverse agonists, EC50 for partial agonists
From the text: There are many methods available to show the effectiveness of compounds as histamine H4 receptor ligands. Histamine H4 receptors from mammalian species have been cloned. Methods to clone, express, and assess the potency and functional activity of such cloned genes are well known to those skilled in the art of molecular biology. […] Before testing, cells are loaded with a Ca^+2 sensitive fluorescent dye, in this case Fluo-4. In the case of partial agonist or agonist ligands, addition of compound to the cells leads to the increase in intracellular Ca^+2 which is detected by FLIPR (Fluorescence Imaging Plate Reader; Molecular Devices, Sunnyvale, Calif.) technology. […] The fluorescence intensities measured before addition of the test compound are subtracted from the fluorescence intensities at later time points. Peak response values determined at each concentration of ligand are expressed as a percentage of the response obtained with the full agonist histamine. Concentration versus response data are analyzed to obtain compound potency as Kb values for antagonists and inverse agonists and as EC50 values for partial agonists.

Sequence of histamine H4 receptor (Q9H3N8 whole entry): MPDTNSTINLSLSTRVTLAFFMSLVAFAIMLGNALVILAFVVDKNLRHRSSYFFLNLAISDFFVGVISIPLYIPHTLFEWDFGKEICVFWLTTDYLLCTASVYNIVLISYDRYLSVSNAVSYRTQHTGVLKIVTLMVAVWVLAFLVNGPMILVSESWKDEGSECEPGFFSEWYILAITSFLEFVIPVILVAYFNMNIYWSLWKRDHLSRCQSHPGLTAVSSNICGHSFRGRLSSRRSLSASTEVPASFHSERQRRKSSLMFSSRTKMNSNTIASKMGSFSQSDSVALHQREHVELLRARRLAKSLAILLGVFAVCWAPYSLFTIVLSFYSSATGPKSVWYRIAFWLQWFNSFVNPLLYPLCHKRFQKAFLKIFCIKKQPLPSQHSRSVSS

Structure (SMILES) | Potency [nM]
Cc1cc(C)c2c(c1)-c1nc(N)nc(N3CCNCC3)c1CCC2 [Example 126, 8,10-Dimethyl-4-piperazin-1-yl-6,7-dihydro-5H-benzo[6,7]cyclohepta[1,2-d]pyrimidin-2-ylamine] | 2754
Nc1nc2c(c(N3CC4CCCNC4C3)n1)CCSc1ccccc1-2 (stereo not drawn) [Example 96, 4-(Octahydro-pyrrolo[3,4-b]pyridin-6-yl)-5,6-dihydro-7-thia-1,3-diaza-dibenzo[a,c]cyclohepten-2-ylamine] | 19
CC1CCN(c2nc(N)nc3c2CCCc2ccccc2-3)CCN1 (stereo not drawn) [Example 67, 4-(5-methyl-1,4-diazepan-1-yl)-6,7-dihydro-5H-benzo[6,7]cyclohepta[1,2-d]pyrimidin-2-amine] | 69
Nc1nc2c(c(N3C[C@@H]4CN[C@@H]4C3)n1)CCCc1ccccc1-2 [Example 120, (1S,5S)-4-(3,6-Diaza-bicyclo[3.2.0]hept-3-yl)-6,7-dihydro-5H-benzo[6,7]cyclohepta[1,2-d]pyrimidin-2-ylamine] | 603
Nc1nc2c(c(N3CCNCCNCC3)n1)CCCc1ccccc1-2 [Example 94, 4-[1,4,7]Triazonan-1-yl-6,7-dihydro-5H-benzo[6,7]cyclohepta[1,2-d]pyrimidin-2-ylamine] | 9.1
CN[C@@H]1CCN(c2nc(N)nc3c2CCCCCc2ccccc2-3)C1 [Example 23, 4-(3-(R)-Methylamino-pyrrolidin-1-yl)-6,7,8,9-tetrahydro-5H-1,3-diaza-dibenzo[a,c]cyclononen-2-ylamine] | 56
CNCC(=O)Nc1nc2c(c(N3CCNCC3)n1)CCCc1ccccc1-2 [Example 88, 2-Methylamino-N-(4-piperazin-1-yl-6,7-dihydro-5H-benzo[6,7]cyclohepta[1,2-d]pyrimidin-2-yl)-acetamide] | 209
CN1CCC(Oc2nc(N)nc3c2CCCc2ccccc2-3)CC1 [Example 68, 4-(1-Methyl-piperidin-4-yloxy)-6,7-dihydro-5H-benzo[6,7]cyclohepta[1,2-d]pyrimidin-2-ylamine] | 15
CN[C@@H]1CCN(c2nc(N)nc3c2CCOc2ccc(Cl)cc2-3)C1 [Example 45, 10-chloro-4-[(3R)-3-(methylamino)pyrrolidin-1-yl]-5,6-dihydro[1]benzoxepino[5,4-d]pyrimidin-2-amine] | 69
Nc1nc2c(c(N3CCNCC3)n1)CCCCCc1ccccc1-2 [Example 21, 4-Piperazin-1-yl-6,7,8,9-tetrahydro-5H-1,3-diaza-dibenzo[a,c]cyclononen-2-ylamine] | 5623
CN1CC2CC(C1)N(c1nc(N)nc3c1CCCc1ccccc1-3)C2 (stereo not drawn) [Example 86, 4-(3-Methyl-3,6-diaza-bicyclo[3.2.1]oct-6-yl)-6,7-dihydro-5H-benzo[6,7]cyclohepta[1,2-d]pyrimidin-2-ylamine] | 891
Nc1nc2c(c(N3CC[C@@H](N)C3)n1)CCSc1ccccc1-2 [Example 35, 4-(3-(R)-Amino-pyrrolidin-1-yl)-5,6-dihydro-7-thia-1,3-diaza-dibenzo[a,c]cyclohepten-2-ylamine] | 891
Nc1nc2c(c(N3CC4CCCNC4C3)n1)CCOc1cc(I)ccc1-2 (stereo not drawn) [Example 102, 9-Iodo-4-octahydro-pyrrolo[3,4-b]pyridin-6-yl-5,6-dihydro-7-oxa-1,3-diaza-dibenzo[a,c]cyclohepten-2-ylamine] | 45
CNc1ccc2c(c1)-c1nc(N)nc(N3C[C@H]4CCCN[C@H]4C3)c1CCC2 [Example 131, 10-N-methyl-4-[(4aR,7aR)-octahydro-6H-pyrrolo[3,4-b]pyridin-6-yl]-6,7-dihydro-5H-benzo[6,7]cyclohepta[1,2-d]pyrimidine-2,10-diamine] | 113
Nc1nc2c(c(N3CCC4CC3CN4)n1)CCCc1ccccc1-2 (stereo not drawn) [Example 82, 4-(2,6-Diaza-bicyclo[3.2.1]oct-2-yl)-6,7-dihydro-5H-benzo[6,7]cyclohepta[1,2-d]pyrimidin-2-ylamine] | 2042
CN[C@@H]1CCN(c2nc(N)nc3c2CCCCc2ccccc2-3)C1 [Example 54, 4-[(3R)-3-(methylamino)pyrrolidin-1-yl]-5,6,7,8-tetrahydrobenzo[7,8]cycloocta[1,2-d]pyrimidin-2-amine] | 32
c1ccc2c(c1)CCCc1c-2ncnc1N1CCNCC1 [Example 118, 4-Piperazin-1-yl-6,7-dihydro-5H-benzo[6,7]cyclohepta[1,2-d]pyrimidine] | 138
CNC1CN(c2nc(N)nc3c2CCc2ccccc2-3)C1 [Example 40, 4-(3-Methylamino-azetidin-1-yl)-5,6-dihydro-benzo[h]quinazolin-2-ylamine] | 34

Structure (SMILES) | Potency [nM]
COC(=O)c1nc2c(c(N3CC4CCCNC4C3)n1)CCCc1ccccc1-2 (stereo not drawn) [Example 133, 4-(Octahydro-pyrrolo[3,4-b]pyridin-6-yl)-6,7-dihydro-5-benzo[6,7]cyclohepta[1,2-d]pyrimidine-2-carboxylic acid methyl ester] | 14454
CN[C@@H]1CCN(c2nc(N)nc3c2CCOc2c(Cl)cccc2-3)C1 [Example 51, 8-chloro-4-[(3R)-3-(methylamino)pyrrolidin-1-yl]-5,6-dihydro[1]benzoxepino[5,4-d]pyrimidin-2-amine] | 41
CN(C)CC(=O)Nc1nc2c(c(N3CCNCC3)n1)CCCc1ccccc1-2 [Example 87, 2-Dimethylamino-N-(4-piperazin-1-yl-6,7-dihydro-5H-benzo[6,7]cyclohepta[1,2-d]pyrimidin-2-yl)-acetamide] | 174
Nc1nc2c(c(N3CC4(CCCCN4)C3)n1)CCCc1ccccc1-2 [Example 78, 4-(2,5-Diaza-spiro[3.5]non-2-yl)-6,7-dihydro-5H-benzo[6,7]cyclohepta[1,2-d]pyrimidin-2-ylamine] | 891
Nc1nc2c(c(N3CC4CCCNC4C3)n1)CCCc1cc3c(cc1-2)CCCC3 (stereo not drawn) [Example 98, 4-(Octahydro-pyrrolo[3,4-b]pyridin-6-yl)-6,7,9,10,11,12-hexahydro-5H-1,3-diaza-benzo[3,4]cyclohepta[1,2-b]naphthalen-2-ylamine] | 52
Nc1nc2c(c(N3CC[C@@H](N)C3)n1)CCCCc1ccccc1-2 [Example 55, 4-[(3R)-3-aminopyrrolidin-1-yl]-5,6,7,8-tetrahydrobenzo[7,8]cycloocta[1,2-d]pyrimidin-2-amine] | 123
Nc1nc2c(c(N3CC4CCCNC4C3)n1)CCCc1ccc(F)cc1-2 (stereo not drawn) [Example 115, 10-fluoro-4-octahydro-6H-pyrrolo[3,4-b]pyridin-6-yl-6,7-dihydro-5H-benzo[6,7]cyclohepta[1,2-d]pyrimidin-2-amine] | 32
CN[C@@H]1CCN(c2nc(N)nc3c2CC(C)c2ccccc2-3)C1 (stereo partly drawn) [Example 1, 6-Methyl-4-[(3R)-3-methylamino-pyrrolidin-1-yl]-5,6-dihydro-benzo[h]quinazolin-2-ylamine] | 18
Nc1nc2c(c(N3CCNCC3)n1)CCOc1cc(I)ccc1-2 [Example 101, 9-Iodo-4-piperazin-1-yl-5,6-dihydro-7-oxa-1,3-diaza-dibenzo[a,c]cyclohepten-2-ylamine] | 269
CNC1CN(c2nc(N)nc3c2CC[S+]([O-])c2ccccc2-3)C1 (stereo not drawn) [Example 37, 4-(3-Methylamino-azetidin-1-yl)-7-oxo-6,7-dihydro-5H-7λ4-thia-1,3-diaza-dibenzo[a,c]cyclohepten-2-ylamine] | 537
Nc1nc2c(c(N3CCNCC3)n1)SCCc1ccccc1-2 [Example 109, 4-Piperazin-1-yl-6,7-dihydro-5-thia-1,3-diaza-dibenzo[a,c]cyclohepten-2-ylamine] | 87
CNC1CN(c2nc(N)nc3c2CC(C)c2ccccc2-3)C1 (stereo not drawn) [Example 2, 6-Methyl-4-(3-methylamino-azetidin-1-yl)-5,6-dihydro-benzo[h]quinazolin-2-ylamine] | 44
CN1CC[C@@H]2CN(c3nc(N)nc4c3CCCc3ccccc3-4)C[C@@H]21 [Example 15, 4-((3aR,6aR)-1-Methyl-hexahydro-pyrrolo[3,4-b]pyrrol-5-yl)-6,7-dihydro-5H-benzo[6,7]cyclohepta[1,2-d]pyrimidin-2-ylamine] | 209
CN[C@@H]1CCN(c2nc(N)nc3c2CCOc2c(OC)cccc2-3)C1 [Example 53, 8-methoxy-4-[(3R)-3-(methylamino)pyrrolidin-1-yl]-5,6-dihydro[1]benzoxepino[5,4-d]pyrimidin-2-amine] | 100
Nc1nc2c(c(N3C[C@@H]4C[C@H]3CN4)n1)CCCc1ccccc1-2 [Example 17, 4-((1S,4S)-2,5-Diaza-bicyclo[2.2.1]hept-2-yl)-6,7-dihydro-5H-benzo[6,7]cyclohepta[1,2-d]pyrimidin-2-ylamine] | 912
CN[C@@H]1CCN(c2nc(N)nc3c2CCOc2cc(OC)ccc2-3)C1 [Example 50, 9-methoxy-4-[(3R)-3-(methylamino)pyrrolidin-1-yl]-5,6-dihydro[1]benzoxepino[5,4-d]pyrimidin-2-amine] | 56
c1ccc2c(c1)CCCc1c-2nc(N2CCNCC2)nc1N1CCNCC1 [Example 103, 2,4-Di-piperazin-1-yl-6,7-dihydro-5H-benzo[6,7]cyclohepta[1,2-d]pyrimidine] | 351
Nc1nc(NC[C@H]2CCN2)c2c(n1)-c1ccccc1CCC2 [Example 64, N^4-[(2R)-azetidin-2-ylmethyl]-6,7-dihydro-5H-benzo[6,7]cyclohepta[1,2-d]pyrimidine-2,4-diamine] | 1549
